The values that follow come from ChEMBL document CHEMBL1201862, “PubChem BioAssay data set” (2004).

The target of assay [1] is G-protein coupled receptor 35 (Homo sapiens, UniProt Q9HC97). In words: GPR35 antagonists blocking zaprinast-driven arrestin recruitment, primary screen, imaging, U2OS, beta-arrestin-GFP, zaprinast agonist (AID 2058).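 Also: antagonist potency meaning inhibition of agonist-induced arrestin redistribution.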 In kind it is functional.
For assay [2], the target named is T1, Short transient receptor potential channel 4 (Mus musculus, UniProt Q9QUQ5).
T1 sequence (Q9QUQ5 whole entry): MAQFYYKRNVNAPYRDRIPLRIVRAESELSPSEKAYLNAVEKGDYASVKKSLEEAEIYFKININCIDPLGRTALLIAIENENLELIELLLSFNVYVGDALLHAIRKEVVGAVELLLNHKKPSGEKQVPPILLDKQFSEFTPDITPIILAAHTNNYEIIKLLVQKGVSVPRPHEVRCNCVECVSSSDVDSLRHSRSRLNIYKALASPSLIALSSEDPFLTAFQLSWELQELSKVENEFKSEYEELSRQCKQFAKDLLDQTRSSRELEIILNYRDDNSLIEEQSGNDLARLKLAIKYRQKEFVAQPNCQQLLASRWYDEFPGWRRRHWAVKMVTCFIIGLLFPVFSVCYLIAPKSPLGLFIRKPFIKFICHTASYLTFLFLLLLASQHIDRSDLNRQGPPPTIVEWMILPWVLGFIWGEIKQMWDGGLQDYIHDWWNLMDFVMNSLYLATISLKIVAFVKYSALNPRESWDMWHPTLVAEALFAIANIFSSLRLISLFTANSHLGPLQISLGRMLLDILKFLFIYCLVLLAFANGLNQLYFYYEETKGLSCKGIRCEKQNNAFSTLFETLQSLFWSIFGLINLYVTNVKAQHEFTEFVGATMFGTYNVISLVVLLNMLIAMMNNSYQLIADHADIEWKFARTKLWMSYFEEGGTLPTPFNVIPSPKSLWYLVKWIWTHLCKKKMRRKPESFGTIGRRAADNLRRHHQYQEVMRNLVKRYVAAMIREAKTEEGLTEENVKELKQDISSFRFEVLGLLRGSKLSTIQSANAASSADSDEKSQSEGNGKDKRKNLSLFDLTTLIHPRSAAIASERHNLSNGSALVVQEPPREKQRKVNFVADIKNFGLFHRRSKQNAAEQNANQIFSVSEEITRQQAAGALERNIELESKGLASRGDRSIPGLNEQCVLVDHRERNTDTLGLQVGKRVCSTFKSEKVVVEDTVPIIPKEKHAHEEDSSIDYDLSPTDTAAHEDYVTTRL
In words: mouse TRPC4 channel inhibitors, dose response, cell-based, HEK293 TRPC4/mu-opioid, Fluo-4 calcium (AID 434942).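 Also: potency of inhibitors blocking the TRPC4 calcium response.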 In kind it is functional.

For assay [3], the target named is Melanin-concentrating hormone receptor 1 (Homo sapiens, UniProt Q99705). In words: Late-stage fluorescence-based counterscreen for antagonists of the G-protein coupled receptor 7 (GPR7): cell-based dose response assay to identify antagonists of the melanin-concentrating hormone receptor 1 (MCHR1). [Related pubchem assays (depositor defined):AID1861, AID1880, AID1952, AID2148, AID2251, AID2257, AID485339]. In kind it is functional.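 Also: stimulated with 30 nM MCH peptide agonist.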
Sequence of Melanin-concentrating hormone receptor 1 (Q99705 whole entry): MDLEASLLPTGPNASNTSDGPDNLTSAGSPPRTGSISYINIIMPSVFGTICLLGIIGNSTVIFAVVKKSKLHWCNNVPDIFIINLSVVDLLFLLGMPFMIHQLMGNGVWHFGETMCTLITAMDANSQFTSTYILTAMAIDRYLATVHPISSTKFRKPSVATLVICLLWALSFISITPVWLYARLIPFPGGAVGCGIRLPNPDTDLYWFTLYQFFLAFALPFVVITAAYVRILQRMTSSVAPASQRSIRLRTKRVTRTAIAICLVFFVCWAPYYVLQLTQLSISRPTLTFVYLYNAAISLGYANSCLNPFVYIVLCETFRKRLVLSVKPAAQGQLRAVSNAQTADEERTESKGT

The target of assay [4] is T2, Neuropeptides B/W receptor type 1 (Homo sapiens, UniProt P48145).
T2 sequence (P48145 whole entry): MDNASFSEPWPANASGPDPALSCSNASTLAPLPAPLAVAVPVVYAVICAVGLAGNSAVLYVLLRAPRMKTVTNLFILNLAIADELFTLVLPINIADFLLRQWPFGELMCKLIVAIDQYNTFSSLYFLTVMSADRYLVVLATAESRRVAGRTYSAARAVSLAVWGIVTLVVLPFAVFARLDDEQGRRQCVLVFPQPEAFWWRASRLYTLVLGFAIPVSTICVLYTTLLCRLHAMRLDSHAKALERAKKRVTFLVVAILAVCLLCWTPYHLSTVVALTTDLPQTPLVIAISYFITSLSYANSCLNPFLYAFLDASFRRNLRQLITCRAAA
In words: GPR7 antagonist potency, late-stage follow-up, cell-based, fluorescence, dose response (AID 463251). In kind it is functional.

The target of assay [5] is Protein Rev (Human immunodeficiency virus type 1 group M subtype B (isolate HXB2)(HIV-1), UniProt P04618). In words: inhibitors of Rev binding to RRE RNA, dose response, biochemical, fluorescence polarization, HIV-1 (AID 434976). Also on record: species or system Human immunodeficiency virus 1.
Sequence of Protein Rev (P04618 whole entry): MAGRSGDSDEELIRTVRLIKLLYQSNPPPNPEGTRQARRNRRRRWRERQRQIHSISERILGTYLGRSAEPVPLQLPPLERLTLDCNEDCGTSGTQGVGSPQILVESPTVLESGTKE
The target of assay [6] is Female germline-specific tumor suppressor gld-1 (Caenorhabditis elegans, UniProt Q17339). In words: inhibitors of GLD-1 binding to TGE RNA, dose response, biochemical, fluorescence polarization, C. elegans (AID 2802).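 Also: fluorescence polarization of labeled TGE RNA bound by purified gld-1 protein.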
In assay [7] the target is T3, RNA-binding protein pos-1 (Caenorhabditis elegans, UniProt G5EF15).
T3 sequence (G5EF15 whole entry): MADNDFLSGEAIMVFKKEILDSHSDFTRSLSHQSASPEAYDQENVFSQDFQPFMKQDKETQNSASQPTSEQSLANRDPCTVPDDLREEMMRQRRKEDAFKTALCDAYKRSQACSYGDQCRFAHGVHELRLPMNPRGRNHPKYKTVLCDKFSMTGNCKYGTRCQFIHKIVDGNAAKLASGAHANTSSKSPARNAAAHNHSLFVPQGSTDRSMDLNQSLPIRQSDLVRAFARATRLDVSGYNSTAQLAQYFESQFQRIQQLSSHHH
In words: inhibitors of POS-1/mex-3 RNA binding, dose response, biochemical, fluorescence polarization (AID 1964).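 Also: purified POS-1 fused to maltose binding protein made in E. coli; potency of compounds blocking POS-1 binding to fluorescent RNA.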

The target of assay [8] is T4, Zinc finger protein mex-5 (Caenorhabditis elegans, UniProt Q9XUB2).
T4 sequence (Q9XUB2 whole entry): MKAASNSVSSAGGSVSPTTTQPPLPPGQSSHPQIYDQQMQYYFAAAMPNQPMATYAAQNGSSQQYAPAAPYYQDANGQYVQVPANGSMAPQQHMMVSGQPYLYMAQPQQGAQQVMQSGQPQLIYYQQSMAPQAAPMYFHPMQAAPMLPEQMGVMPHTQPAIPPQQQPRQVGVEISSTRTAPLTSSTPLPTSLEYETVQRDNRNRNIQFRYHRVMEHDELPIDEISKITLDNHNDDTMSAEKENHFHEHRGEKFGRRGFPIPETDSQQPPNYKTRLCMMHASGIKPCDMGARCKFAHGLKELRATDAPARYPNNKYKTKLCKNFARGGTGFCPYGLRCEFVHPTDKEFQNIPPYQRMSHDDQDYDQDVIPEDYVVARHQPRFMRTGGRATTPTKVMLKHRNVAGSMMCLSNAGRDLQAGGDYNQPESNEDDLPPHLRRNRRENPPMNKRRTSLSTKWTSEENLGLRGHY
In words: MEX-5/TCR-2 RNA interaction inhibitors, dose response, biochemical, C. elegans, fluorescence polarization (AID 1960).

The target in assay [9] is T5, Long-chain-fatty-acid--AMP ligase FadD28 (Mycobacterium tuberculosis, UniProt P9WQ59).
T5 sequence (P9WQ59 whole entry): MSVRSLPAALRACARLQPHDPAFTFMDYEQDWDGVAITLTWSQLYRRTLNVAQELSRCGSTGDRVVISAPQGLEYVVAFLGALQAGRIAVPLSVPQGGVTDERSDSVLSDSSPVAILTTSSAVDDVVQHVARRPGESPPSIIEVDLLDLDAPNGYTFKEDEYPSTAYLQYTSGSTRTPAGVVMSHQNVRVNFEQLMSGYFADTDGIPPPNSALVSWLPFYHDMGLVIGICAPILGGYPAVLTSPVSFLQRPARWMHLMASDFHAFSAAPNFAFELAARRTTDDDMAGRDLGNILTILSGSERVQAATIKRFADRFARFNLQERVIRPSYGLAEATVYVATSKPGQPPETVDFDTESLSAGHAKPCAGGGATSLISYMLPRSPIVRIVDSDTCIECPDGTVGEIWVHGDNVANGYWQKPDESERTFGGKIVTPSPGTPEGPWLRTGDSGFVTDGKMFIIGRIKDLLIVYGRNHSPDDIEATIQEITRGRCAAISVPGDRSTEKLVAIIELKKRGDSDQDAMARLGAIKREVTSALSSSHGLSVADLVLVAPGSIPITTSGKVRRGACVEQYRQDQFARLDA
In words: Fluorescence polarization aasay to screen for inhibitors that compete for the binding of FadD28 to a bisubstrate Measured in Biochemical System Using Plate Reader - 2147-01_Inhibitor_Dose_CherryPick_Activity. In kind it is functional, Mycobacterium tuberculosis H37Rv.

In assay [10] the target is Protein S100-A4 (Homo sapiens, UniProt P26447). In words: S100A4-myosin IIA binding inhibitor potency, dose response, biochemical, fluorescence polarization, cherry-picked hits (AID 687001). In kind it is functional.
Sequence of Protein S100-A4 (P26447 whole entry): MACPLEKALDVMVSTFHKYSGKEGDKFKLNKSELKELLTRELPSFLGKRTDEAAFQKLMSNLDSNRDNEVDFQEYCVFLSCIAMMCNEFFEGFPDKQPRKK
For assay [11], the target named is T6, Histone-lysine N-methyltransferase NSD2 (Homo sapiens, UniProt O96028).
T6 sequence (O96028 whole entry): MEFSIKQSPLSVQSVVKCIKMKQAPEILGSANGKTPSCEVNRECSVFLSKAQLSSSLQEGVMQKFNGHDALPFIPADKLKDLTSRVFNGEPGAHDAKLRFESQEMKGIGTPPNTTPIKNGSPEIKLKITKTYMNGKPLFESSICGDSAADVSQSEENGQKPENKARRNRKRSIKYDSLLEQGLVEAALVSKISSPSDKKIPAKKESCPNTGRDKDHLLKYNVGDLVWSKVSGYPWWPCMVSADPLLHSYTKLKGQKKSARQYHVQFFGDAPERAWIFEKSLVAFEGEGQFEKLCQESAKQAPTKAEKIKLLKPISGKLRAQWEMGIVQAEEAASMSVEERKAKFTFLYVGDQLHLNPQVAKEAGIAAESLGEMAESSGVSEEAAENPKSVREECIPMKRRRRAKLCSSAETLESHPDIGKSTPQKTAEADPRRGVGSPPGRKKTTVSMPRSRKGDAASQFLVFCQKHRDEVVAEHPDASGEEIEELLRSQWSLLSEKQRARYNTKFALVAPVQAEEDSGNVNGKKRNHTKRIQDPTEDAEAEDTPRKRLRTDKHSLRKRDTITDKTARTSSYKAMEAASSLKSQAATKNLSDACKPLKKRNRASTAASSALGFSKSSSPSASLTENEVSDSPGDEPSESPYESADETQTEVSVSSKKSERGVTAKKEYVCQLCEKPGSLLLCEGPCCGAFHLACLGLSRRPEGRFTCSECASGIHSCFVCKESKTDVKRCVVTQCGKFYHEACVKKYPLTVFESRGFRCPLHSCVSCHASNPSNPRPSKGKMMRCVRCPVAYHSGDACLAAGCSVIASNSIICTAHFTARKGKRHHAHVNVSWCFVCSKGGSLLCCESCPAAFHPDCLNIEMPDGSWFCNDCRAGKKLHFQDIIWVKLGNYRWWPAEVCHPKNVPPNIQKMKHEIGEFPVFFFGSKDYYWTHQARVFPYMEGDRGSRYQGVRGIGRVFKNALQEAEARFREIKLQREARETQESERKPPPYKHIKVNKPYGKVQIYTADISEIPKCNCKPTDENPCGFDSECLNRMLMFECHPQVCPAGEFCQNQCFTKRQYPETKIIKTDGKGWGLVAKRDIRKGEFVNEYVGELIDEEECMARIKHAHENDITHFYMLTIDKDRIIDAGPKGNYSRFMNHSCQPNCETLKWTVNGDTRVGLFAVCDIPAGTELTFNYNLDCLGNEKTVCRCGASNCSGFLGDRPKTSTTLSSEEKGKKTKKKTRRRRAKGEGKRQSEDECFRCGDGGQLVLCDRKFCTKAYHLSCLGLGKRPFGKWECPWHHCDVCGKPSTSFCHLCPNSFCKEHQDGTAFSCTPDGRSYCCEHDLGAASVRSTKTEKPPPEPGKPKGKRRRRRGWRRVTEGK
In kind it is biochemical.

Assay [12] addresses T7, Fibrinogen beta chain (Homo sapiens, UniProt P02675). In words: Fluorescence polarization-based biochemical high throughput dose response assay to identify inhibitors that disrupt the binding of a cyclic peptide (Tn6) to the fibrin proteolytic product D-Dimer and fragment E complex [DD(E )].
Assay [13] deals with T7, Fibrinogen beta chain. In words: Fluorescence polarization-based biochemical high throughput dose response assay to identify inhibitors that disrupt the binding of a cyclic peptide (Tn7) to the fibrin proteolytic product D-Dimer and fragment E complex [DD(E )].
Assay [14] addresses Cystic fibrosis transmembrane conductance regulator/Golgi-associated PDZ and coiled-coil motif-containing protein (Homo sapiens, UniProt P13569+Q9HD26). In words: CAL PDZ peptide-binding inhibitors, dose response, biochemical, fluorescence polarization, Cerulean-tagged CAL PDZ, cherry-picks (AID 504773).
Assay [15] deals with Voltage-dependent T-type calcium channel subunit alpha-1H (Homo sapiens, UniProt O95180). Format: functional.
Sequence of Voltage-dependent T-type calcium channel subunit alpha-1H (O95180 whole entry): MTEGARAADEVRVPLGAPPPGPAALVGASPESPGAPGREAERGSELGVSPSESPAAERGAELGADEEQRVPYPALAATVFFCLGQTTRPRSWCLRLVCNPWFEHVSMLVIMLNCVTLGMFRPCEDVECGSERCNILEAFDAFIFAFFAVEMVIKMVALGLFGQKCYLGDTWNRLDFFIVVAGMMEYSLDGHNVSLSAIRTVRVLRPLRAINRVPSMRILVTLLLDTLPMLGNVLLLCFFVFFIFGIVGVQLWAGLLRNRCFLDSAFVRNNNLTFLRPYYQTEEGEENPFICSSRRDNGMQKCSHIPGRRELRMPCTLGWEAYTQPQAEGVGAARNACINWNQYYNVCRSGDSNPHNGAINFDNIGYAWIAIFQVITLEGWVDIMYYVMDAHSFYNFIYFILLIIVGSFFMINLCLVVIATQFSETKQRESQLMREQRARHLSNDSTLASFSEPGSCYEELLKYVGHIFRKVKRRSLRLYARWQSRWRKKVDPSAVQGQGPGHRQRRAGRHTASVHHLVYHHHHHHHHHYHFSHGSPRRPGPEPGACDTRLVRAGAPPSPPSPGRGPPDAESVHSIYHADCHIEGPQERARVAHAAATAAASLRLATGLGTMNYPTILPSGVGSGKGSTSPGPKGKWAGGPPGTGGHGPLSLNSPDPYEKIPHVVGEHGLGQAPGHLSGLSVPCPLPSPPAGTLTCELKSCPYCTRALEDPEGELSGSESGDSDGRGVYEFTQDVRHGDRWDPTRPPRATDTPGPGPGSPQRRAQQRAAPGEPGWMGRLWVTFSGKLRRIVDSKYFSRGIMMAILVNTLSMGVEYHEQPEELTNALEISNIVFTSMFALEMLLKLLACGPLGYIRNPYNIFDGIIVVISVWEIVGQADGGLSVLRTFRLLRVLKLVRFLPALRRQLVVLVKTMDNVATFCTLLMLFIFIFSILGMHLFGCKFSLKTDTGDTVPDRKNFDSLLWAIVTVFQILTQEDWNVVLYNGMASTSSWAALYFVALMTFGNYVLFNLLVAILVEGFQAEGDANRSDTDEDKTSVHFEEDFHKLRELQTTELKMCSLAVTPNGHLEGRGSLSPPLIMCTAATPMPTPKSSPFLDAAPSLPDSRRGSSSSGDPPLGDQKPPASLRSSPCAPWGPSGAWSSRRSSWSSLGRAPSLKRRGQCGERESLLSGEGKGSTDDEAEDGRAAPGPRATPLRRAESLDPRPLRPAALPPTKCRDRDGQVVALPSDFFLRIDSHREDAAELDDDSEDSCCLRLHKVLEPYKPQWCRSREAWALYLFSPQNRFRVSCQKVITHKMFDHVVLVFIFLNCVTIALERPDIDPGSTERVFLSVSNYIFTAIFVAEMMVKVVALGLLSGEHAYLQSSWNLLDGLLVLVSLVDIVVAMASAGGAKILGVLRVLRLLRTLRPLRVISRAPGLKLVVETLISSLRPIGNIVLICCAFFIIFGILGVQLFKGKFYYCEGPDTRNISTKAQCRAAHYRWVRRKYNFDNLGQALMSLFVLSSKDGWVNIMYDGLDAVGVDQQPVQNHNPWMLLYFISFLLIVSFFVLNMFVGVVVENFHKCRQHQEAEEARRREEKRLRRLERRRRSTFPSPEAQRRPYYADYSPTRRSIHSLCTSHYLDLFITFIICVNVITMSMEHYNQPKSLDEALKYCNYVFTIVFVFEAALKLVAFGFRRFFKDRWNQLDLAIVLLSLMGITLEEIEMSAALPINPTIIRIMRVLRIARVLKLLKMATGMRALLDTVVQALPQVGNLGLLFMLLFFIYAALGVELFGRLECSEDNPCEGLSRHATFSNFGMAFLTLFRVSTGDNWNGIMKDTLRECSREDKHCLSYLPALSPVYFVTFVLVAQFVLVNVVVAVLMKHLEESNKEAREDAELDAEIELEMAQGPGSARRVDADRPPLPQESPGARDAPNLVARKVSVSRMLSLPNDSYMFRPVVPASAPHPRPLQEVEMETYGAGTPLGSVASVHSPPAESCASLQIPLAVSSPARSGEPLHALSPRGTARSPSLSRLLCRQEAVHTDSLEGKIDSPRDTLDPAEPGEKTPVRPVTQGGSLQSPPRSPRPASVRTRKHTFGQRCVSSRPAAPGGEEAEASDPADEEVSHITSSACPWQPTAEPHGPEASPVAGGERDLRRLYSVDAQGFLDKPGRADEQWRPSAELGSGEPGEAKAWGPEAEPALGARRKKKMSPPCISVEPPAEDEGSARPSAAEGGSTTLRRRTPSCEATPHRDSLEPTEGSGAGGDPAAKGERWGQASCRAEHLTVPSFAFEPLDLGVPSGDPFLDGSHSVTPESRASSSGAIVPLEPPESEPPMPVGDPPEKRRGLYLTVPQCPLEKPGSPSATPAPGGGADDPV

The source made the active and inactive calls.

T7 sequence (P02675 whole entry, the tested form may be a part): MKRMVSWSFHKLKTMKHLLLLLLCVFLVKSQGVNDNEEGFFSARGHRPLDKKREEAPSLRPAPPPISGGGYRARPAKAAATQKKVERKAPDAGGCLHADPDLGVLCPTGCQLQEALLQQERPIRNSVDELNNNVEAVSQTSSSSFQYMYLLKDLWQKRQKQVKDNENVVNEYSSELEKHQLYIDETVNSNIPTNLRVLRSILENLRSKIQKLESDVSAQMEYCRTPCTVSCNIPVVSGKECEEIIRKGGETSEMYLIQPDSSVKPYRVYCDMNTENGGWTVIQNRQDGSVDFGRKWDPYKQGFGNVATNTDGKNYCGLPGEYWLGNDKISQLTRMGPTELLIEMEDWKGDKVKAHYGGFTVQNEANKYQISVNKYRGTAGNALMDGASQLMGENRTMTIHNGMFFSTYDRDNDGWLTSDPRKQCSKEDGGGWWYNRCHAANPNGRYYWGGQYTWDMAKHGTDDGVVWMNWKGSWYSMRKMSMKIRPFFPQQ
Sequence of Cystic fibrosis transmembrane conductance regulator/Golgi-associated PDZ and coiled-coil motif-containing protein (P13569 whole entry, other chains not shown): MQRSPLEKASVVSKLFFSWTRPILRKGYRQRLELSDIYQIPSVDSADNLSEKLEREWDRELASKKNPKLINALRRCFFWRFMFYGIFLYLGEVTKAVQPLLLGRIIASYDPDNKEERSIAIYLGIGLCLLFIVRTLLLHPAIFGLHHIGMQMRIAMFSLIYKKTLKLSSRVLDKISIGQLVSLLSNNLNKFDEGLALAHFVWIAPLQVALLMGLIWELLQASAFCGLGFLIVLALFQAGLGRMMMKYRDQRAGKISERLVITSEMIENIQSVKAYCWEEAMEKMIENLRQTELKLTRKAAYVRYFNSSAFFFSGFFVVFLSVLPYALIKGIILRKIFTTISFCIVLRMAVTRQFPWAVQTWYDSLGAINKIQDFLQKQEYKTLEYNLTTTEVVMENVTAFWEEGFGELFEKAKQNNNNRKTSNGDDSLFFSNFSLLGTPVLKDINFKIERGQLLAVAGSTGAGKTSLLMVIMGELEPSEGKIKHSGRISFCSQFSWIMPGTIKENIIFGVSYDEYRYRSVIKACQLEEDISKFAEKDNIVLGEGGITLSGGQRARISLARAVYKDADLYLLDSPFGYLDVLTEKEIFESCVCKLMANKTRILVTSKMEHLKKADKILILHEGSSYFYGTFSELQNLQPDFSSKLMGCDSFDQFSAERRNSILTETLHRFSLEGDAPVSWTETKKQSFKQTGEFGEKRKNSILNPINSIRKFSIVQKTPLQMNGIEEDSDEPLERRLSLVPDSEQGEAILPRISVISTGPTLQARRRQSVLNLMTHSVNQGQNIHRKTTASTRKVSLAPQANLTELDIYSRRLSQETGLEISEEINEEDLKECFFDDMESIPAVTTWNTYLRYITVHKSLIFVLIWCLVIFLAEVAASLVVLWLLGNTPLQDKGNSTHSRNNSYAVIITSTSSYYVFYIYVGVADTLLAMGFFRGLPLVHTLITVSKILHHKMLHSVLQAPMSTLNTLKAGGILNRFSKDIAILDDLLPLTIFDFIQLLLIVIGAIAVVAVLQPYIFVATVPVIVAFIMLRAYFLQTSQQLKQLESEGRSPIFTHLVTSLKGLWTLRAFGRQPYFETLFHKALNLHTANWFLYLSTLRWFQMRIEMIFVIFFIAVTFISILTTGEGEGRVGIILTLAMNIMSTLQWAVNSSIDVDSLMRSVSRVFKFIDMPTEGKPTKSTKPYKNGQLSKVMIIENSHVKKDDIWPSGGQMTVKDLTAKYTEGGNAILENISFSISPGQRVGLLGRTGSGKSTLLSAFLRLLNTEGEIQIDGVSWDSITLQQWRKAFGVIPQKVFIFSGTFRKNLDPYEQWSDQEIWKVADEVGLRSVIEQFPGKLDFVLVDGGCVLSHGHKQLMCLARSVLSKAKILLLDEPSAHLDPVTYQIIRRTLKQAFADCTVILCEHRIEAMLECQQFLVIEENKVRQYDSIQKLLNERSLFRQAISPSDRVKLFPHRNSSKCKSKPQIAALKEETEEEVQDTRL

Regarding `COc1ccc2nc(C)cc(NCc3ccc(F)cc3)c2c1`, the IC50 in [1] was 2.6 µM (active). For the same compound, the EC50 in [2] is 5.96 µM (active).
`COc1ccc(Oc2c(Cl)cnn(-c3cc(C(F)(F)F)cc(C(F)(F)F)c3)c2=O)cc1`: the IC50 in assay [3] was 1.5 µM (active); in assay [4], 1.2 µM (active).
With `Cn1c(=O)cc2c3c(c(N4CCCCC4)ccc31)C(=O)c1ccccc1-2`, the IC50 in assay [5] was 14.2 µM (not active); in assay [6], 4.96 µM (active); in assay [12] it was > 27.8 µM (inactive); in assay [13] it was > 83.3 µM (inactive). In addition, the values for the EC50 in [7] and in [8] were > 300 µM (inconclusive) and 25.9 µM (active), respectively. Further, the values for the AC50 in assay [9], in assay [10] and in [11] were 11.8 µM (active), 1.72 µM (active) and 12.3 µM (active), respectively.
Take `Cc1sc(NC(=O)c2ccco2)c(C(Nc2ccccn2)c2ccccc2)c1C` (stereo not given): in [14], the concentration at half-maximal activity (AC50) is 60.1 µM (active).
`C=CCOc1c(Br)cc(CNc2nccs2)cc1OC`: the EC50 in assay [15] was 6.12 µM (active).
